The values that follow are results of earlier work, collected in US20230218627A1, “PRESERVATIVE FREE PHARMACEUTICAL COMPOSITION FOR OPHTHALMIC ADMINISTRATION COMPRISING BRIMONIDINE” (PHARMATHEN S.A., priority 2020, published 2023).

The structures appear in SMILES notation.

For data set [1], the system named is alpha-2 adrenergic receptor.

In the case of `Brc1c(NC2=NCCN2)ccc2nccnc12` [Brimonidine], the “selectivity for the alpha-2 adrenergic receptor than the alpha-1 adrenergic receptor” value in data set [1] is given as 1000 fold.
As to `CC(C)(C)NC[C@H](O)COc1nsnc1N1CCOCC1.O=C(O)/C=C\C(=O)O` [Timolol maleate, (2S)-1-[(1,1-Dimethylethyl)amino]-3-[[4-(morpholin-4-yl)-1,2,5-thiadiazol-3-yl]oxy]propan-2-ol (Z)-butenedioate], the solubility in ethanol result (ethanol) is listed as “soluble”. Further, the solubility in water entry (water) was “soluble”.
